Legend:
L1210/CDDP cells = assay: In vitro growth inhibition of murine leukaemia L1210/CDDP (Table III); type: cell-based
Procedure: (§1) Effect of BBR 1939 on in vitro growth^b) of murine leukaemia^a)
(§2) ^a) 10^5 cells were plated in triplicate at time
(§3) ^b) means used: RPMI 1640 + 10 Y FCS (inactivated in warm) +
(§4) 2mercaptoethanol 10^-3 M
(§5) ^c) IC %: inhibition percentage of cellular growth (treated animals

K562 cells = assay: In vitro growth inhibition of human erythroleukosis K562 (Table III); type: cell-based
Procedure: as §1
L1210/CDDP and human erythroleukosis
K562 b - Comparison with CDDP:
as §2, §3, §4, §5

leukaemia L1210/CDDP = assay: Effect on leukaemia L1210/CDDP (cis-platinum resistant) in rats CD2 F1, i.p. (Table II); type: in vivo, rats CD2 Fl; conditions: for MST / T/C %: day 1; for LTS (60 days): day 1, 60 days
Procedure: ^a) 10^5 cell/rat injected i.p. at day
Compounds were administered at day "1

human tumors = conditions: cited from earlier work
leukaemia P388 = assay: Antitumour activity against leukaemia P388 in rats CD2 F1, i.p. (Table I); type: in vivo; conditions: for MST / T/C % / TOX: day 1; for LTS (60 days): day 1, 60 days
Procedure: 10^5 leukaemic cells were injected at day 0 and the compounds were administered intraperitoneally the day after, defined as day 1 of the experiment.

## N.N.[Cl][Pt][Cl] [cis-platinum, cis-diaminodichloroplatinum II]
L1210/CDDP cells; 0.5 ug/ml, after 24 hours
  IC % (inhibition percentage of cellular growth): 20%
L1210/CDDP cells; 0.5 ug/ml, after 48 hours
  IC % (inhibition percentage of cellular growth): 8%
L1210/CDDP cells; 0.5 ug/ml, after 72 hours
  IC % (inhibition percentage of cellular growth): 37%
L1210/CDDP cells; 1 ug/ml, after 24 hours
  IC % (inhibition percentage of cellular growth): 30%
L1210/CDDP cells; 1 ug/ml, after 48 hours
  IC % (inhibition percentage of cellular growth): 18%
L1210/CDDP cells; 1 ug/ml, after 72 hours
  IC % (inhibition percentage of cellular growth): 44%
L1210/CDDP cells; 5 ug/ml, after 24 hours
  IC % (inhibition percentage of cellular growth): 54%
L1210/CDDP cells; 5 ug/ml, after 48 hours
  IC % (inhibition percentage of cellular growth): 87%
L1210/CDDP cells; 5 ug/ml, after 72 hours
  IC % (inhibition percentage of cellular growth): 84%
L1210/CDDP cells; 10 ug/ml, after 24 hours
  IC % (inhibition percentage of cellular growth): 78%
L1210/CDDP cells; 10 ug/ml, after 48 hours
  IC % (inhibition percentage of cellular growth): 92%
L1210/CDDP cells; 10 ug/ml, after 72 hours
  IC % (inhibition percentage of cellular growth): 86%
L1210/CDDP cells; 50 ug/ml, after 24 hours
  IC % (inhibition percentage of cellular growth): 80%
L1210/CDDP cells; 50 ug/ml, after 48 hours
  IC % (inhibition percentage of cellular growth): 99%
L1210/CDDP cells; 50 ug/ml, after 72 hours
  IC % (inhibition percentage of cellular growth): 100%
K562 cells; 1 ug/ml, after 24 hours
  IC % (inhibition percentage of cellular growth): 22%
K562 cells; 1 ug/ml, after 48 hours
  IC % (inhibition percentage of cellular growth): 52%
K562 cells; 1 ug/ml, after 72 hours
  IC % (inhibition percentage of cellular growth): 54%
K562 cells; 5 ug/ml, after 24 hours
  IC % (inhibition percentage of cellular growth): 28%
K562 cells; 5 ug/ml, after 48 hours
  IC % (inhibition percentage of cellular growth): 71%
K562 cells; 5 ug/ml, after 72 hours
  IC % (inhibition percentage of cellular growth): 82%
K562 cells; 10 ug/ml, after 24 hours
  IC % (inhibition percentage of cellular growth): 35%
K562 cells; 10 ug/ml, after 48 hours
  IC % (inhibition percentage of cellular growth): 76%
K562 cells; 10 ug/ml, after 72 hours
  IC % (inhibition percentage of cellular growth): 87%
K562 cells; 50 ug/ml, after 24 hours
  IC % (inhibition percentage of cellular growth): 52%
K562 cells; 50 ug/ml, after 48 hours
  IC % (inhibition percentage of cellular growth): 85%
K562 cells; 50 ug/ml, after 72 hours
  IC % (inhibition percentage of cellular growth): 91%
K562 cells; 100 ug/ml, after 24 hours
  IC % (inhibition percentage of cellular growth): 56%
K562 cells; 100 ug/ml, after 48 hours
  IC % (inhibition percentage of cellular growth): 85%
K562 cells; 100 ug/ml, after 72 hours
  IC % (inhibition percentage of cellular growth): 91%
Leukaemia L1210/CDDP; 5 mg/Kg
  MST: 11.1 days
  T/C %: 97%
  LTS (60 days): 0/10
Leukaemia L1210/CDDP; 7.5 mg/Kg
  MST: 11.6 days
  T/C %: 101%
  LTS (60 days): 0/10
Leukaemia L1210/CDDP; 12.5 mg/Kg
  MST: 9.3 days
  T/C %: 103%
  LTS (60 days): 0/10
Human tumors; clinical observation
  clinical efficacy: Clinical observation confirms the efficacy of the compound in a number of human tumors
Human tumors; clinical
  side effects: serious gastro-intestinal, renal side effects, hematologic and neurologic complications (ototoxicity)
Leukaemia P388; 6 mg/Kg
  MST: 22.5 days
  T/C %: 198%
  LTS (60 days): 0/7
Leukaemia P388; 10 mg/Kg
  MST: 18.8 days
  T/C %: 162%
  LTS (60 days): 0/7
Leukaemia P388; 14 mg/Kg
  MST: 11.5 days
  T/C %: 99%
  LTS (60 days): 0/7

## O=C1c2c(O)ccc(O)c2C(=O)c2c(NCCNCCO)ccc(NCCNCCO)c21 [Mitoxanthrone]
Leukaemia P388; 3.75 mg/Kg
  MST: 32.5 days
  T/C %: 295%
  TOX: 0/7
  LTS (60 days): 2/7
Leukaemia P388; 11.1 mg/Kg
  MST: 36.5 days
  T/C %: 331%
  TOX: 0/7
  LTS (60 days): 1/7
Leukaemia P388; 18.4 mg/Kg
  MST: 42.5 days
  T/C %: 386%
  TOX: 0/7
  LTS (60 days): 1/7
Leukaemia P388; 25.8 mg/Kg
  MST: 40.5 days
  T/C %: 368%
  TOX: 1/7
  LTS (60 days): 0/7
